Patent US9962427B2, “Treatment of right ventricular dysfunction due to pressure overload” (OTTAWA HOSPITAL RESEARCH INSTITUTE, priority 2016, dated 2018)
Values belong to the compound of their own block, whether it stands above or below them.

How the values were obtained:
cardiomyocytes = test system: cardiomyocytes
Procedure: FIG. 7B Quantitation of cell viability analysis as shown in (A). FIG. 7C Quantification of PI cell viability FACS analysis following a 24 hrs treatment of cardiomyocytes with H2O2 in the presence or absence of hCT1. Pre-treatment with PI3K inhibitor (LY294002, 50 μM) before H2O2 was also tested.
Cardiomyocytes were treated with control serum-free media or with H2O2 (300 μM, 1 hr) to induce cell death in the presence or absence of hCT1 (0.5 nM). After 24 hrs, cells were incubated with the cell viability marker Propidium Iodide (PI) (1 μg/mL) and analyzed by FACS (Ex: 535 nm, Em: 617 nm) for viable cells; i.e. cells inside the gated region of the side scatter (SS) versus PI plot (FIG. 7A). […] The PI3K pathway is a critical feature of physiological cardiac adaptive compensation and is a key protective feature distinguishing it from pathological adaptive compensation. Therefore, cardiomyocytes were pre-treated with a PI3K inhibitor (LY294002, 50 μM) before CT-1/H2O2 treatment.

rats = test: M-mode ECHO after 2 weeks of osmotic minipump delivery in rats; type: in vivo, rat; settings: ISO 1 mg/kg/day
Procedure: FIGS. 3A, 3B, and 3C. […] Arrows (in upper panels) point to myocardial wall (RVLW). Dotted lines (in lower panels) show inner ventricle chambers.
CT-1 was tested in vivo to determine whether its administration would induce a myocardial adaptive remodeling characteristic of physiologic compensation (FIGS. 3A, 3B, and 3C). Osmotic minipumps containing PBS control (Ctrl) or hCT1 (6 μg/kg/hr) or Isoproterenol (ISO, 1 mg/kg/day) were implanted subcutaneously in rats. ISO is a beta-adrenergic receptor agonist and continuous infusion with ISO in rats is known to induce pathological cardiac hypertrophy and cardiomyocyte damage (in both the right and left ventricles) which progresses to heart failure (Morisco et al (2001) J Mol Cell Cardiol 33:561-573 and Grimm et al (1998) Cardiovascular Research 37:91-100). After 2 weeks of treatment, M-mode ECHO analysis was used to assess myocardial structure/function (FIG. 3A). In this model, an increased right ventricle lateral wall (RVLW) thickness indicates the presence of myocardiocytes growth, and an increased ratio of the right to left ventricle internal diameters (RVID/LVID) is an indicator of pathologic hypertrophy. An increased RVLW thickness but constant or reduced RVID:LVID ratio is an indicator of adaptive compensatory RV remodeling. Both hCT1 and ISO induced a significant increase in RVLW thickness (12% and 32% fold increase, respectively) compared to control rats (n=3; * and **, P<0.05). […] An in vivo growth reversal analysis was also conducted. Following a 2 week delivery of CT-1 protein (6 μg/kg/hr) or PE (10 mg/kg/day) as the pathologic control in this case, animals were then assessed for cardiac structure/function at a 6 week follow-on period. […] Collectively, these studies support the contention that CT-1 elicits a reversible physiologic cardiac adaptive compensation.

NFAT = NFAT luciferase reporter adenovirus (Nfat-AdV) in cardiomyocytes; type: cell-based; settings: as early as 3 hours, up to 24 hours; PE 100 μM, PAC-1 25 μM
Procedure: (§1) FIGS. 6A, 6B, and 6C. Stimulation with hCT1 causes sustained activation of NF-κB and Stat3 with limited activation of Mef2, as well as limited Nfat activation; the latter two indices are distinct expression patterns from pathologic hypertrophic stimulation. FIG. 6A Primary neonatal cardiomyocytes were transfected with luciferase reporter plasmids (NF-κB or Mef2), as indicators of hypertrophic activity. Luciferase activity was measured after treatments for 24 hrs with: hCT1 (0.5 nM), PE (100 μM), or procaspase 3 activating compound 1, PAC-1 (25 μM) (left). Treatments at early timepoints (30 min, 1 hr, and 3 hr) were also conducted for hCT1 (right). FIG. 6B Primary neonatal cardiomyocytes were transfected with a luciferase reporter plasmid for Stat3. Luciferase activity was measured after treatments for 24 hrs with: hCT1 (0.5 nM), PE (100 μM), or procaspase 3 activating compound 1, PAC-1 (25 μM) (left) and at earlier time points (right). FIG. 6C Primary neonatal cardiomyocytes were infected with a luciferase-based Nfat reporter Adenovirus (Nfat-AdV). Luciferase activity was measured after treatments for 24 hrs with: hCT1 (0.5 nM), PE (100 μM), or procaspase 3 activating compound 1, PAC-1 (25 μM) (left) and at earlier time points (right)
Applicants tested this supposition by infecting cardiomyocytes with an NFAT luciferase reporter linked to an Adenovirus (AdV) backbone (FIG. 6C). Cardiomyocytes were infected at a […] (MOI) of 20 with Nfat-AdV for 24 hours prior to stimulation with hCT1 (0.5 nM), PE (100 μM), or procaspase 3 activating compound 1, PAC-1 (25 μM). As an initial positive control, co-infection of NFAT-AdV with activated Calcineurin-AdV (a phosphatase and potent activator of NFAT signalling) caused a significant increase in NFAT activity (n=4; *, P<0.05). […] Although the exact mechanism of inhibition is unknown, Applicant has shown CT-1 engaging a PI3K signalling pathway and it would be reasonable to postulate that phosphorylation of NFAT by CT-1/PI3K signalling would limit NFAT activity.

[1] = test system: Vascular Endothelial Growth Factor—VEGF; test: VEGF expression by immunofluorescence in primary cardiomyocytes; type: cell-based; settings: 24 hours; hCT1 0.5 nM, PE 100 μM, PAC-1 25 μM
Procedure: FIGS. 8A and 8B. […] FIG. 8B Microarray analysis of primary cardiomyocytes stimulated with hCT1 (0.5 nM) for 24 hours.
Applicant explored the role of CT-1 as a pro-angiogenic factor in the adaptive hypertrophic response. Physiologic cardiac adaptive compensation is associated with an increase in capillary density, whereas pathologic response is characterized by a decline or no change at all. Importantly, the compensatory vascular growth/angiogenesis that occurs during physiologic adaptive compensation is permissive for the increased workload that accompanies physiologic adaptive compensation. Despite this adaptation, little information exists regarding the mechanisms that match the demand for angiogenesis to the beneficial form of myocardial growth. The rapid in vitro and in vivo adaptive compensation in response to CT-1 supports a hypothesis that the cardiomyocyte itself may act in a paracrine fashion, to signal and promote angiogenesis. To address this conjecture, Applicant examined whether CT-1 treated primary cardiomyocytes produced vascular endothelial growth factor (VEGF), an angiogenic factor known to be produced and secreted by cardiomyocytes. Primary cardiomyocytes were incubated with control serum-free media (Ctrl, SF media) or stimulated with hCT1 (0.5 nM), PE (100 μM), or PAC-1 (25 μM) for 24 hours. Immunofluorescence was used to detect α-actinin, Vascular Endothelial Growth Factor—VEGF, and nuclei. […] Based on these observations Applicant next conducted a comparative gene expression analysis of control (non-stimulated) versus CT-1 treated (0.5 nM, 24 hours) primary cardiomyocytes, using the Affymetrix Rat gene 2.0ST array.

STAT3 = STAT3 luciferase reporter in cardiomyocytes; type: cell-based; settings: 30 minutes up to 24 hours; hCT1 0.5 nM, PE 100 μM, PAC-1 25 μM
Procedure: as §1
Moreover, it is reasonable to assume that CT-1 may moderate the activity of additional transcription factors, which further contribute to the adaptive compensation phenotype. As such, Applicants decided to test the hypothesis that STAT3 (Signal transducer and activator of transcription 3) dependent transcriptional activity is a specific determinant for CT-1 induced physiologic adaptive compensation. STAT3 phosphorylation and transcriptional activation is a response that is common to the Interleukin-6 cytokine family (of which CT-1 is a member), which is mediated through binding and activation of a JAK/gp130 (Janus kinase/[…]) receptor complex.

Mef2 = Mef2 luciferase reporter in primary neonatal cardiomyocytes; type: cell-based; settings: hCT1 0.5 nM, PE 100 μM, PAC-1 25 μM
Procedure: as §1
The signaling pathways that CT-1 engages in mediating physiologic adaptive compensatory remodeling were examined. The applicants predicted that cardiomyocyte adaptive remodeling mediated by CT-1 results (in part) from the induction of a specific transcriptional program, which is distinct from that of pathologic hypertrophic response. To address this hypothesis, the applicants tested the activity of two well-known transcription factor families that have been linked to both physiologic and pathologic cardiomyocyte growth, the Mef2 (Kolodziejczyk et al. 1999 Curr Biol. 9, 1203-1206; Kim et al. 2008, J Clin Invest. 118, 124-132.) and the NF-κB family (Gordon et al. 2011, Circ Res. 108, 1122-1132). Primary neonatal cardiomyocytes were transfected with luciferase reporter plasmids (NF-κB and Mef2) to be used as a read out of transcriptional activity. Luciferase activity was determined after treatments for 24 hrs with: hCT1 (0.5 nM), PE (100 μM), or procaspase 3 activating compound 1, PAC-1 (25 μM). […] This pattern of transcription factor activation was distinct from that induced by PE and by the caspase 3 specific activating compound PAC-1.

SMILES: OO [H2O2, hydrogen peroxide]
cardiomyocyte viability decreased vs. control (cardiomyocytes; 1 h, 300 μM): 24%
decrease in viability vs. control (cardiomyocytes; 24 h): 70%

SMILES: CC(C)NCC(O)c1ccc(O)c(O)c1 (stereo not drawn) [ISO, Isoproterenol, reference compound]
increase in the RVID/LVID ratio (rats): 24%
increase in RVLW thickness compared to control rats (rats; hCT1 6 μg/kg/hr, subcutaneous minipump): 32 % fold increase

SMILES: O=c1cc(N2CCOCC2)oc2c(-c3ccccc3)cccc12 [LY294002]
decrease in viability compared to cells treated only with hCT1/H2O2 (cardiomyocytes; pre-treatment with LY294002 50 μM before CT-1/H2O2 (FIG. 7C)): 46%

STAT3 activation (STAT3): only minimal (if any) activation
Mef2 activation after 24 hrs (Mef2): significant activation of Mef2
SMILES: C=CCc1cccc(/C=N/NC(=O)CN2CCN(Cc3ccccc3)CC2)c1O [PAC-1, procaspase 3 activating compound 1, reference compound]
NFAT activity compared to baseline levels (NFAT): significant increase of NFAT activity
VEGF expression (immunofluorescence) [1]: less VEGF expression
